According to US20110172433A1, “NOVEL IMINO DERIVATIVES, METHODS FOR PRODUCING THE SAME AND INSECTICIDES CONTAINING THE SAME” (priority 2008, published 2011):

What follows are molecules tested on cotton aphid, green peach aphid, greenhouse whitefly, two-spotted spider mite (assay: not given). Details: in vivo.
In the case of `O=C(N=C1SCCN1Cc1ccc(Cl)nc1)C(Cl)(Cl)Cl` [Compound 5], the pest controlling effects is reported as “excellent pest controlling effects”. `CCCOC(=O)N=C1SCCN1Cc1ccc(Cl)nc1` [Compound 43] was tested, and the pest controlling effects was “excellent pest controlling effects”. In the case of `CC(C)OC(=O)N=C1SCCN1Cc1ccc(Cl)nc1` [Compound 44], the pest controlling effects is reported as “excellent pest controlling effects”. In the case of `O=C(N=C1SCCN1Cc1ccc(Cl)nc1)OCCCl` [Compound 45], the pest controlling effects is reported as “excellent pest controlling effects”. With `CC(=O)N=C1SCCN1Cc1ccc(Cl)nc1` [Compound 72] the pest controlling effects was “excellent pest controlling effects”. In the case of `O=C(CCl)N=C1SCCN1Cc1ccc(Cl)nc1` [Compound 73], the pest controlling effects is reported as “excellent pest controlling effects”. For `O=C(N=C1SCCN1Cc1ccc(Cl)nc1)C(F)F` [Compound 76], the pest controlling effects was “excellent pest controlling effects”. `COCC(=O)N=C1SCCN1Cc1ccc(Cl)nc1` [Compound 78] was tested, and the pest controlling effects was “excellent pest controlling effects”. `CSCCC(=O)N=C1SCCN1Cc1ccc(Cl)nc1` [Compound 90] was tested, and the pest controlling effects was “excellent pest controlling effects”. `O=C(N=C1SCCN1Cc1ccc(Cl)nc1)C1CC1` [Compound 92] was tested, and the pest controlling effects was “excellent pest controlling effects”. For `O=C(N=C1SCCN1Cc1ccc(Cl)nc1)C1CC1(F)F` (stereo not shown) [Compound 103], the pest controlling effects was “excellent pest controlling effects”. With `CONC(=O)N=C1SCCN1Cc1ccc(Cl)nc1` [Compound 106] the pest controlling effects was “excellent pest controlling effects”. `CCOC(=O)N=C1SCCN1Cc1ccc(Cl)nc1` [Compound 113] was tested, and the pest controlling effects was “excellent pest controlling effects”. In the case of `O=C(N=C1SCCN1Cc1ccc(Cl)nc1)OCCF` [Compound 114], the pest controlling effects is reported as “excellent pest controlling effects”. `O=C(N=C1SCCN1Cc1ccc(Cl)nc1)OCC(F)F` [Compound 115] was tested, and the pest controlling effects was “excellent pest controlling effects”. `COCCOC(=O)N=C1SCCN1Cc1ccc(Cl)nc1` [Compound 118] was tested, and the pest controlling effects was “excellent pest controlling effects”. With `CSCCOC(=O)N=C1SCCN1Cc1ccc(Cl)nc1` [Compound 119] the pest controlling effects was “excellent pest controlling effects”. `O=C(N=C1SCCN1Cc1ccc(Cl)nc1)OCCCF` [Compound 122] was tested, and the pest controlling effects was “excellent pest controlling effects”. For `C=CCOC(=O)N=C1SCCN1Cc1ccc(Cl)nc1` [Compound 126], the pest controlling effects was “excellent pest controlling effects”. `CCCCOC(=O)N=C1SCCN1Cc1ccc(Cl)nc1` [Compound 128] was tested, and the pest controlling effects was “excellent pest controlling effects”. `CC(C)COC(=O)N=C1SCCN1Cc1ccc(Cl)nc1` [Compound 129] was tested, and the pest controlling effects was “excellent pest controlling effects”. `CCC(C)OC(=O)N=C1SCCN1Cc1ccc(Cl)nc1` (stereo not shown) [Compound 130] was tested, and the pest controlling effects was “excellent pest controlling effects”. In the case of `CC(C)=CCOC(=O)N=C1SCCN1Cc1ccc(Cl)nc1` [Compound 135], the pest controlling effects is reported as “excellent pest controlling effects”. `CCCCCOC(=O)N=C1SCCN1Cc1ccc(Cl)nc1` [Compound 136] was tested, and the pest controlling effects was “excellent pest controlling effects”. In the case of `O=C(N=C1SCCN1Cc1ccc(Cl)nc1)OCC1CC1` [Compound 139], the pest controlling effects is reported as “excellent pest controlling effects”. `O=C(N=C1SCCN1Cc1ccc(Cl)nc1)OCC1CCOC1` (stereo not shown) [Compound 144] was tested, and the pest controlling effects was “excellent pest controlling effects”. In the case of `O=C(N=C1SCCN1Cc1ccc(Cl)nc1)OC1CCOCC1` [Compound 146], the pest controlling effects is reported as “excellent pest controlling effects”.

The molecules below were run on greenhouse whitefly (assay: Greenhouse whitefly controlling effect (cucumber dip)). Details: wettable powder per Formulation Example 2, active ingredient 100 μg/ml, 25° C., after 120 hours.
Assay type: in vivo, Trialeurodes vaporariorum
Procedure: This was allowed to be inhabited with 20 adult insects of the greenhouse whitefly, covered with the stopper, and allowed to stand in a room whose temperature was constant at 25° C. After 120 hours, the number of viable insects was counted.
The overground part of the 1-leaf stage cucumber was dipped in a 100 μg/ml treatment solution obtained by a 5000-fold dilution with water of the prepared wettable powder, and air-dried, and then transferred to a plastic container having a stopper. This was allowed to be inhabited with 20 adult insects of the greenhouse whitefly, covered with the stopper, and allowed to stand in a room whose temperature was constant at 25° C. After 120 hours, the number of viable insects was counted.
Molecule `O=C(/N=C1\SCCN1Cc1ccc(Cl)nc1)C(F)(F)F` [Formula (12)] has a lethality of 25%.
